From PubChem BioAssay (NCI)
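These data come from cells grown in 96-well plates and exposed to compound for 48 hours at five concentrations. GI50 = concentration required for 50% inhibition of growth. At the TGI there is no net growth.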

Columns and labels:
Experiment in all cases: NCI tumour cell line growth inhibition, 48 h
786-0 renal = tested on: 786-0 renal
A498 renal = tested on: A498 renal
A549 NSCLC = tested on: A549 NSCLC
ACHN renal = tested on: ACHN renal
BT-549 breast = tested on: BT-549 breast
CAKI-1 renal = tested on: CAKI-1 renal
CCRF-CEM leukemia = tested on: CCRF-CEM leukemia
COLO 205 colon = tested on: COLO 205 colon
DU-145 prostate = tested on: DU-145 prostate
EKVX NSCLC = tested on: EKVX NSCLC
HCC-2998 colon = tested on: HCC-2998 colon
HCT-116 colon = tested on: HCT-116 colon
HCT-15 colon = tested on: HCT-15 colon
HL-60(TB) leukemia = tested on: HL-60(TB) leukemia
HOP-62 NSCLC = tested on: HOP-62 NSCLC
HOP-92 NSCLC = tested on: HOP-92 NSCLC
HS 578T breast = tested on: HS 578T breast
HT29 colon = tested on: HT29 colon
K-562 leukemia = tested on: K-562 leukemia
KM12 colon = tested on: KM12 colon
LOX IMVI melanoma = tested on: LOX IMVI melanoma
M14 melanoma = tested on: M14 melanoma
MALME-3M melanoma = tested on: MALME-3M melanoma
MCF7 breast = tested on: MCF7 breast
MDA-MB-231 breast = tested on: MDA-MB-231 breast
MDA-MB-435 = tested on: MDA-MB-435
MOLT-4 leukemia = tested on: MOLT-4 leukemia
NCI-H226 lung = tested on: NCI-H226 lung
NCI-H23 lung = tested on: NCI-H23 lung
NCI-H460 lung = tested on: NCI-H460 lung
NCI/ADR-RES ovarian = tested on: NCI/ADR-RES ovarian
OVCAR-3 ovarian = tested on: OVCAR-3 ovarian
OVCAR-4 ovarian = tested on: OVCAR-4 ovarian
OVCAR-5 ovarian = tested on: OVCAR-5 ovarian
OVCAR-8 ovarian = tested on: OVCAR-8 ovarian
PC-3 prostate = tested on: PC-3 prostate
RPMI-8226 leukemia = tested on: RPMI-8226 leukemia
SF-268 CNS = tested on: SF-268 CNS
SF-295 CNS = tested on: SF-295 CNS
SF-539 CNS = tested on: SF-539 CNS
SK-MEL-28 melanoma = tested on: SK-MEL-28 melanoma
SK-MEL-5 melanoma = tested on: SK-MEL-5 melanoma
SK-OV-3 ovarian = tested on: SK-OV-3 ovarian
SN12C renal = tested on: SN12C renal
SNB-19 CNS = tested on: SNB-19 CNS
SNB-75 CNS = tested on: SNB-75 CNS
SR leukemia = tested on: SR leukemia
SW-620 colon = tested on: SW-620 colon
T-47D breast = tested on: T-47D breast
TK-10 renal = tested on: TK-10 renal
U251 CNS = tested on: U251 CNS
UACC-257 melanoma = tested on: UACC-257 melanoma
UACC-62 melanoma = tested on: UACC-62 melanoma
IGROV1 ovarian = tested on: IGROV1 ovarian
RXF 393 renal = tested on: RXF 393 renal
SK-MEL-2 melanoma = tested on: SK-MEL-2 melanoma
UO-31 renal = tested on: UO-31 renal

O=C(COc1cccc(/C=C2/Oc3ccccc3C2=O)c1)Nc1nccs1
GI50 (786-0 renal): 3.3 µM | TGI (786-0 renal): 14.4 µM | GI50 (A498 renal): 20.8 µM | TGI (A498 renal): 85.4 µM | GI50 (A549 NSCLC): 23.6 µM | TGI (A549 NSCLC): > 100 µM | GI50 (ACHN renal): 27.4 µM | TGI (ACHN renal): > 100 µM | GI50 (BT-549 breast): 14.9 µM | TGI (BT-549 breast): 43.7 µM | GI50 (CAKI-1 renal): 15.9 µM | TGI (CAKI-1 renal): 34.4 µM | GI50 (CCRF-CEM leukemia): 1.89 µM | TGI (CCRF-CEM leukemia): 3.73 µM | GI50 (COLO 205 colon): 24.4 µM | TGI (COLO 205 colon): 97.9 µM | GI50 (DU-145 prostate): 27.8 µM | TGI (DU-145 prostate): > 100 µM | GI50 (EKVX NSCLC): 31.9 µM | TGI (EKVX NSCLC): > 100 µM | GI50 (HCC-2998 colon): 29 µM | TGI (HCC-2998 colon): 68.9 µM | GI50 (HCT-116 colon): 22.8 µM | TGI (HCT-116 colon): > 100 µM | GI50 (HCT-15 colon): 28.3 µM | TGI (HCT-15 colon): > 100 µM | GI50 (HL-60(TB) leukemia): 2.86 µM | TGI (HL-60(TB) leukemia): 8.58 µM | GI50 (HOP-62 NSCLC): 38.3 µM | TGI (HOP-62 NSCLC): > 100 µM | GI50 (HOP-92 NSCLC): 10.1 µM | TGI (HOP-92 NSCLC): 30.2 µM | GI50 (HS 578T breast): 24.4 µM | TGI (HS 578T breast): > 100 µM | GI50 (HT29 colon): 32.7 µM | TGI (HT29 colon): > 100 µM | GI50 (K-562 leukemia): 16.4 µM | TGI (K-562 leukemia): 53.7 µM | GI50 (KM12 colon): 10.5 µM | TGI (KM12 colon): 32.9 µM | GI50 (LOX IMVI melanoma): 2.78 µM | TGI (LOX IMVI melanoma): 10.2 µM | GI50 (M14 melanoma): 30.5 µM | TGI (M14 melanoma): > 100 µM | GI50 (MALME-3M melanoma): 21.2 µM | TGI (MALME-3M melanoma): 50.9 µM | GI50 (MCF7 breast): 14.8 µM | TGI (MCF7 breast): > 100 µM | GI50 (MDA-MB-231 breast): 7.95 µM | TGI (MDA-MB-231 breast): 29.8 µM | GI50 (MDA-MB-435): 21.2 µM | TGI (MDA-MB-435): 68 µM | GI50 (MOLT-4 leukemia): 13 µM | TGI (MOLT-4 leukemia): 31.4 µM | GI50 (NCI-H226 lung): 22.9 µM | TGI (NCI-H226 lung): 67.9 µM | GI50 (NCI-H23 lung): 24.8 µM | TGI (NCI-H23 lung): > 100 µM | GI50 (NCI-H460 lung): 31.6 µM | TGI (NCI-H460 lung): > 100 µM | GI50 (NCI/ADR-RES ovarian): 30 µM | TGI (NCI/ADR-RES ovarian): > 100 µM | GI50 (OVCAR-3 ovarian): 14.6 µM | TGI (OVCAR-3 ovarian): 38.8 µM | GI50 (OVCAR-4 ovarian): 19.5 µM | TGI (OVCAR-4 ovarian): 61.8 µM | GI50 (OVCAR-5 ovarian): 44 µM | TGI (OVCAR-5 ovarian): > 100 µM | GI50 (OVCAR-8 ovarian): 16.5 µM | TGI (OVCAR-8 ovarian): 50.1 µM | GI50 (PC-3 prostate): 15.7 µM | TGI (PC-3 prostate): 58.1 µM | GI50 (RPMI-8226 leukemia): 4.28 µM | TGI (RPMI-8226 leukemia): 23.1 µM | GI50 (SF-268 CNS): 6.23 µM | TGI (SF-268 CNS): 26.6 µM | GI50 (SF-295 CNS): 36.4 µM | TGI (SF-295 CNS): > 100 µM | GI50 (SF-539 CNS): 17.1 µM | TGI (SF-539 CNS): 31.9 µM | GI50 (SK-MEL-28 melanoma): 28.9 µM | TGI (SK-MEL-28 melanoma): > 100 µM | GI50 (SK-MEL-5 melanoma): 16.4 µM | TGI (SK-MEL-5 melanoma): 35.2 µM | GI50 (SK-OV-3 ovarian): 48.6 µM | TGI (SK-OV-3 ovarian): > 100 µM | GI50 (SN12C renal): 22.4 µM | TGI (SN12C renal): > 100 µM | GI50 (SNB-19 CNS): 25.4 µM | TGI (SNB-19 CNS): > 100 µM | GI50 (SNB-75 CNS): 17.1 µM | TGI (SNB-75 CNS): 58.1 µM | GI50 (SR leukemia): 4.09 µM | TGI (SR leukemia): 15.9 µM | GI50 (SW-620 colon): 27.4 µM | TGI (SW-620 colon): > 100 µM | GI50 (T-47D breast): 16.8 µM | TGI (T-47D breast): 58.5 µM | GI50 (TK-10 renal): 15.9 µM | TGI (TK-10 renal): 68.7 µM | GI50 (U251 CNS): 20.8 µM | TGI (U251 CNS): > 100 µM | GI50 (UACC-257 melanoma): 20.7 µM | TGI (UACC-257 melanoma): 56.3 µM | GI50 (UACC-62 melanoma): 25.6 µM | TGI (UACC-62 melanoma): 95.9 µM

O=c1[nH]c2ccc(C(F)(F)F)cc2nc1Cc1ccccc1
TGI (786-0 renal): > 100 µM | TGI (A498 renal): 66.9 µM | TGI (ACHN renal): 88.4 µM | TGI (BT-549 breast): 69.4 µM | TGI (CAKI-1 renal): > 100 µM | TGI (CCRF-CEM leukemia): > 100 µM | TGI (COLO 205 colon): 40.7 µM | TGI (DU-145 prostate): > 100 µM | TGI (EKVX NSCLC): > 100 µM | TGI (HCC-2998 colon): 82.6 µM | TGI (HCT-116 colon): > 100 µM | TGI (HCT-15 colon): > 100 µM | TGI (HL-60(TB) leukemia): > 100 µM | TGI (HOP-62 NSCLC): > 100 µM | TGI (HOP-92 NSCLC): 50.4 µM | TGI (HS 578T breast): 71.3 µM | TGI (HT29 colon): 68.7 µM | TGI (IGROV1 ovarian): > 100 µM | TGI (K-562 leukemia): > 100 µM | TGI (KM12 colon): > 100 µM | TGI (LOX IMVI melanoma): > 100 µM | TGI (M14 melanoma): 97.1 µM | TGI (MCF7 breast): > 100 µM | TGI (MDA-MB-231 breast): > 100 µM | TGI (MDA-MB-435): > 100 µM | TGI (MOLT-4 leukemia): 46 µM | TGI (NCI-H226 lung): 50.7 µM | TGI (NCI-H23 lung): 46.5 µM | TGI (NCI-H460 lung): > 100 µM | TGI (NCI/ADR-RES ovarian): 71.2 µM | TGI (OVCAR-4 ovarian): > 100 µM | TGI (OVCAR-8 ovarian): > 100 µM | TGI (PC-3 prostate): 81.3 µM | TGI (RPMI-8226 leukemia): 87.6 µM | TGI (RXF 393 renal): 61.6 µM | TGI (SF-268 CNS): > 100 µM | TGI (SF-295 CNS): > 100 µM | TGI (SF-539 CNS): > 100 µM | TGI (SK-MEL-2 melanoma): 62.6 µM | TGI (SK-MEL-28 melanoma): > 100 µM | TGI (SK-MEL-5 melanoma): 60.2 µM | TGI (SK-OV-3 ovarian): > 100 µM | TGI (SNB-19 CNS): > 100 µM | TGI (SNB-75 CNS): > 100 µM | TGI (SR leukemia): > 100 µM | TGI (SW-620 colon): > 100 µM | TGI (T-47D breast): > 100 µM | TGI (TK-10 renal): > 100 µM | TGI (U251 CNS): > 100 µM | TGI (UACC-257 melanoma): > 100 µM | TGI (UACC-62 melanoma): > 100 µM | TGI (UO-31 renal): > 100 µM
